From patent US4794114A, “Inhibition of interleukin-1 production by monocytes and/or macrophages” (SmithKline Beckman Corporation, priority 1987, dated 1988)
Like-named read-outs stand apart in the source and are kept apart here. One block for each compound: values may come before it.

Legend:
[1] = system: endotoxin shock in C57B1/6 mice; type: in vivo, mouse; settings: for protection from lethal effects of LPS/GALN: mouse, in vivo
Description: Mice are very resistant to the lethal effects of bacterial lipopolysaccharides (LPS). D-Galactosamine (D-GALN) induces a high degree of sensitization to the lethal effects of LPS in mice and other experimental animals. [See, Galanos et al., Proc. Natl. Acad Sci. USA., 76, 5939 (1979)]. In mice, depending on the strain and age, the sensitivity to endotoxin can be increased many thousand-fold.
A number of preliminary experiments were carried out to establish this model of lethal endotoxin shock.

[2] = system: IL-1 production by human monocytes; experiment: in vitro IL-1 production by LPS-stimulated human peripheral blood monocytes (EL-4 readout); type: cell-based; settings: for inhibition at 1 µM / inhibition at 0.1 µM / inhibition at 10 µM / IC50: Homo sapiens, Monocyte; for IC50: 1 ng/ml LPS, 1 hr pretreatment
Description: The effects of antiinflammatory/antiarthritic drugs of different classes, including Compound 1 on the in vitro production of IL-1 by human monocytes was examined.
(§1) Bacterial lipopolysaccharide (LPS) was used to induce IL-1 production by human peripheral blood monocytes. IL-1 activity was measured by its ability to stimulate a Interleukin 2 (IL-2) producing cell line (EL-4) to secrete IL-2, in concert with A23187 ionophore, according to the method of Simon et al., J. Immunol. Methods, 84, 85, (1985). Human peripheral blood monocytes were isolated and purified from either fresh blood preparations from volunteer donors, or from blood Bank buffy coats, according to the procedure of Colotta et al., J. Immunol., 132, 936 (1984). 1×10^6 of such monocytes are plated in 24-well plates at a concentration of 2 million/ml per well. The cells were allowed to adhere for 2 hours, after which time non-adherent cells were removed by gentle washing. Test compounds were then added to the cells for 1 hour (hr) before the addition of lipopolysaccharide (10 ng/ml unless otherwise noted), and the cultures were incubated at 37° C. for an additional 24 hours. At the end of the incubation period, culture supernatants were removed and clarified of cells and all debris. Culture supernatants were immediately assayed for IL-1 biological activity as well as prostaglandin and/or leukotriene concentrations by radioimmunoassay.
^(a) All compounds, except chloroquine, were dissolved in absolute
ethanol at 10^-2 M, which was subsequently diluted further in tissue
assay system at doses tested. Furthermore, test samples were dialyzed
prior to testing in the IL1 assay.
In order to elucidate the mechanism by which Compound 1 mediates its anti-inflammatory activity, the ability of this compound and two closely related analog metabolites, (i.e., the analogs of Compound 1 wherein X is S(0)n and n is 1 or 2) to inhibit human IL-1 production in vitro was evaluated according to the method of Example 1. Briefly, 1×10^6 human peripheral blood monocytes were plated in 24-well plates and allowed to adhere for 1 hr at 37° C. The above compounds were added to a final concentration of 10^-5 M to 10^-8 M. The monocytes were stimulated to produce IL-1 with 1 ng/ml LPS after a 1 hr pretreatment of the cells with the respective compounds.
The inhibitory effect of additional compounds of Formula (I) on the in vitro production of IL-1 production of IL-1 by human monocytes was determined according to the procedure of Examples 1 and 2.

[3] = system: PGE2; experiment: in vitro prostaglandin (PGE2) synthesis by LPS-stimulated human monocytes, RIA; type: cell-based; settings: for inhibition at 1 µM / inhibition at 0.1 µM / inhibition at 10 µM: Homo sapiens, Monocyte, read-out: % Inhibition PGE2
Description: as §1
^(c) PGE2 was assayed using an RIA kit.

[4] = system: IL-1 production by human monocytes; settings: Lipsky, Amer. J. Med. 75, Supp. 1A, 19 (1983); cited from earlier work
[5] = system: splenic adherent cells; experiment: adjuvant-induced arthritis in the rat: % splenic adherent cells; type: in vivo; settings: mg/kg: Compound 1 60, indomethacin 2.0, prednisolone 10, methotrexate 0.3, D-penicillamine 50
Description: (§2) Adjuvant-induced arthritis in the rat is a model of systemic inflammation with characteristics similar to rheumatoid arthritis in man. […] This model was employed to assess the effect of Compound 1 in vivo on this elevated IL-1 production. Briefly, rats were injected on day 0 with Freund's complete adjuvant in the right hind leg. Drugs were prepared as a suspension in tragacanth and administered daily per os either prophylactically (days 1 to 16) or therapeutically in a short-term modality (days 14 to 16). In all cases, final administration of drug occurred at 3 hours prior to sacrifice. Spleens were removed from these rats and the adherent cells were assessed for their ability to produce IL-1 in vitro in response to stimulation by LPS.
(§3) PROPHYLACTIC TREATMENT: Drugs were administered daily p.o. as a suspensio
(§4) in tragacanth from day 1 to day 16. Final dose given 3 hrs before
(§5) TREATMENT: Drugs were administered daily p.o. as above from
(§6) day 14 to day 16. Final dose given 3 hrs before sacrifice.
(§7) ***P < 0.01 Indomethacin 2.0 mg/kg
(§8) **P < 0.05 Compound 1 60 mg/kg
(§9) *P < 0.10 Prednisolone 10 mg/kg
(§10) D-Penicillamine 50 mg/kg

[6] = system: IL-1 production by splenic adherent cells; experiment: adjuvant-induced arthritis in the rat: IL-1 production by LPS-stimulated splenic adherent cells; type: in vivo; settings: mg/kg: Compound 1 60, indomethacin 2.0, prednisolone 10, methotrexate 0.3, D-penicillamine 50
Description: as §2, §3, §4, §5, §6, §7, §8, §9, §10

[7] = system: adjuvant-induced arthritis in the rat; experiment: adjuvant-induced arthritis in the rat: right leg paw edema; type: in vivo; settings: mg/kg: Compound 1 60, indomethacin 2.0, prednisolone 10, methotrexate 0.3, D-penicillamine 50
Description: as §2, §3, §4, §5, §6, §7, §8, §9, §10

[8] = 10^-6 M, read-out: % Inhibition IL-1
[9] = 10^-7 M, read-out: % Inhibition IL-1
[10] = 10^-6 M, Table 3, read-out: % Inhibition @ 10^-6 M
[11] = prophylactic, daily p.o. days 1-16
[12] = therapeutic, daily p.o. days 14-16

Structure (SMILES): O=C1CCN(c2ccccc2)N1 [Phenidone, phenidone]
protection from lethal effects of LPS/GALN [1]: protective effects
inhibition of IL-1 production [2]: marginally active in inhibition of IL-1 production
inhibition at 1 µM [2, 8]: 18%
inhibition at 0.1 µM [2, 9]: 0%
inhibition of prostaglandin synthesis [3]: little inhibitory effect on prostaglandin synthesis
inhibition at 1 µM ([3]; 10^-6 M): 0%

Structure (SMILES): CCN(CC)CCCC(C)Nc1ccnc2cc(Cl)ccc12 (stereo not drawn) [Chloroquine]
inhibition at 0.1 µM ([2]; read-out: % Inhibition IL-1): 36%
inhibition at 1 µM ([2]; read-out: % Inhibition IL-1): 46%
inhibition at 10 µM ([2]; read-out: % Inhibition IL-1): 89%
inhibition of IL-1 production ([2]; doses one or two logs higher than Compound 1): only marginally active
inhibition at 0.1 µM [3]: 0%
inhibition at 1 µM [3]: 0%
inhibition at 10 µM [3]: 84%
inhibition of IL-1 production, literature [4]: inhibit IL-1 production

Structure (SMILES): COc1ccc(-c2nc3n(c2-c2ccncc2)CCCC3)cc1 [Compound 8]
inhibition at 1 µM [2, 10]: 30%

Structure (SMILES): COc1ccc(-c2nc3n(c2-c2ccncc2)CCS3)cc1 [Compound 6]
inhibition at 1 µM [2, 10]: 64%

Structure (SMILES): CC(C)Cc1ccc(C(C)C(=O)O)cc1 (stereo not drawn) [Ibuprofen, ibuprofen]
inhibition of IL-1 production [2]: virtually no effect on IL-1 production
inhibition at 10 µM ([2]; 10^-5 M, read-out: % Inhibition IL-1): 9%
inhibition at 1 µM [2, 8]: 0%
inhibition at 0.1 µM [2, 9]: 0%
inhibition of prostaglandin synthesis [3]: highly active in inhibiting prostaglandin synthesis
inhibition at 10 µM ([3]; 10^-5 M): 97%
inhibition at 1 µM ([3]; 10^-6 M): 71%
inhibition at 0.1 µM ([3]; 10^-7 M): 63%

Structure (SMILES): C[C@@H]1C[C@H]2[C@@H]3CCC4=CC(=O)C=C[C@]4(C)[C@@]3(F)[C@@H](O)C[C@]2(C)[C@@]1(O)C(=O)CO [Dexamethasone]
protection ([1]; administered 24 hours and 1 hour prior to LPS/GALN): provided protection

IC50 [2]: 800 nM
Structure (SMILES): [O-][S+]1CCn2c1nc(-c1ccc(F)cc1)c2-c1ccncc1 (stereo not drawn) [Compound 2]
inhibition at 1 µM [2, 10]: 56%

IC50 [2]: 610 nM
Structure (SMILES): O=S1(=O)CCn2c1nc(-c1ccc(F)cc1)c2-c1ccncc1 [Compound 3]
inhibition at 1 µM [2, 10]: 54%

Structure (SMILES): C[C@]12C=CC(=O)C=C1CC[C@@H]1[C@@H]2[C@@H](O)C[C@@]2(C)[C@H]1CC[C@]2(O)C(=O)CO [PREDNISOLONE, Prednisolone]
% Adherent Cells (splenic), % normal control [5, 11]: 184 ± 79 % normal control
% Adherent Cells (splenic), % normal control [5, 12]: 82 ± 47 % normal control
IL-1 Production (splenic adherent cells), % normal control [6, 11]: 168 ± 40 % normal control
IL-1 Production (splenic adherent cells), % normal control [6, 12]: 300 ± 280 % normal control
Right leg paw edema, % normal control [7, 11]: 125 ± 22 % normal control
Right leg paw edema, % normal control [7, 12]: 147 ± 18 % normal control

Structure (SMILES): CN/C(=N/CCSCc1nc[nH]c1C)NC#N [cimetidine]
protection from lethal effects of LPS/GALN [1]: not
